“Also recorded” adds a separate entry of the source.
Assays:
[1] = target: T1, ERα and RAPTOR (Homo sapiens, UniProt P03372); experiment: proximity ligation assay in MCF-7 cells; assay type: cell-based; details: 10 nM E2 or 1 μM PaPE-1, 15 min
T1 construct: endogenous in cells; host or cells: MCF-7
T1 sequence (P03372 1-595): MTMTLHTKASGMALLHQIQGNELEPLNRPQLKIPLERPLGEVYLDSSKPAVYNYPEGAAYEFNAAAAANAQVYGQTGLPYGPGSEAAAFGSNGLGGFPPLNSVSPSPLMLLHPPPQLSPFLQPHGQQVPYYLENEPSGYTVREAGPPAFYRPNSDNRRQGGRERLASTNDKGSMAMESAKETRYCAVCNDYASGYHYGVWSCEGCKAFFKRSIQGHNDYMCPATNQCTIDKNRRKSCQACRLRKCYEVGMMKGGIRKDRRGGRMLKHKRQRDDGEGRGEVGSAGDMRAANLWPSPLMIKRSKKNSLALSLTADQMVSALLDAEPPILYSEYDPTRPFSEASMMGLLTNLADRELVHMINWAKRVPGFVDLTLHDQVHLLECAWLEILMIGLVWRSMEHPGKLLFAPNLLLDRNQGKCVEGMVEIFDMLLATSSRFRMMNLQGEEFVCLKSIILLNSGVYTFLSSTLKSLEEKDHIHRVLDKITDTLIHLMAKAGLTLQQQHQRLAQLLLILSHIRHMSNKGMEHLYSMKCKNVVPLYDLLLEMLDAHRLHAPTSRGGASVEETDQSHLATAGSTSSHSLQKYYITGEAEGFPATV
Experimental: Next day, the proximity ligation assay (PLA) was performed using the Duolink In Situ kit (Olink Bioscience) according to the manufacturer's instructions, as described in Zhao et. al., Endocrinology, 154, 1349-1360, 2013. Briefly, overnight incubation with primary antibodies was followed by hybridization with two PLA probes at 37° C. for 1 h, and then by ligation for 15 min and amplification for 90 min at 37° C. A coverslip was mounted on each slide and image acquisition and analysis conducted. Samples were imaged using a 63×/1.4 Oil DIC M27 objective in a Zeiss LSM 700 or 710 laser scanning confocal microscope. Images were obtained in a sequential manner using a 488 Ar (10 mW) laser line for PLA signal. The individual channels for DAPI and PLA signal were obtained using a sequential scanning mode to prevent bleed-through of the excitation signal. Laser power, gain and offset were kept constant across the samples and scanned in a high resolution format of 512×512 or 1024×1024 pixels with 2/4 frames averaging. Further quantification of the images used Fiji software (http://fiji.sc/wiki/index.php/Fiji). Briefly, images were converted to 8 bit for segmentation for each channel, and images were background subtracted using a rolling-ball method, with a pixel size of 100 and segmented using the DAPI channel.

[2] = pharmacokinetics after SC injection in ovariectomized mice; assay type: in vivo; details: female, C57BL/6, mouse, serum, 100 ug, subcutaneous injection
Experimental: For short-term studies, ovariectomized C57BL/6 mice were injected SC with 100 μg of PaPE-1 in 100 μl DMSO. Three mice were sacrificed at each time point, and 400 μl of blood was obtained from the abdominal aorta. Samples were centrifuged at 2000 g for 10 min, and serum was collected. A 50 μl portion of each sample was submitted to the Metabolomics Center at the University of Illinois for analysis. For longer-term studies, ovariectomized C57BL/6 mice were implanted SC with a pellet fabricated with 8 mg PaPE-1 and 12 mg cholesterol. Blood samples (30 μl) were collected by tail snipping every week until the third week of treatment. Samples were centrifuged at 2000 g for 10 min and serum was collected. Serum (10 μl) was mixed with 40 μl of PBS and submitted to the Metabolomics Center for analysis. For analysis, a mass standard of PaPE-1 (labeled with three deuterium atoms) was added to each sample before analysis by liquid chromatography-mass spectrometry using the 5500 QTrap with Agilent 1200 HPLC.

## Cc1cc(-c2ccc3c(c2)CCC3O)cc(C)c1O (racemic) [Compound 2, 5-(4-hydroxy-3,5-dimethylphenyl)-2,3-dihydro-1H-inden-1-ol]
[1]
  interaction of ERα with RAPTOR: to a greater extent; also recorded: induces interaction between ERα and Raptor
[2]
  half-life: ~1 h

From patent US10703698B2, “Compounds which activate estrogen receptors and compositions and methods of using the same” (The Board of Trustees of the University of Illinois, priority 2016, dated 2020)
